Where “and” joins values, the source holds several entries; their conditions need not be identical. Equal entries are not always repeated. Where two headings read alike, the source gives them in different places.
What was measured:
[1] = system: Lc. enzyme (diacetyl reductase); assay: Effect of various metal cations and inhibitors on the diacetyl-reducing activity; type: biochemical, Lactobacillus kefir; settings: for Inhibition of the enzyme (in words): 1 mM concentration
Description: In order to determine the behavior of the diacetyl-reducing activity in the presence of metal cations and inhibitors, the appropriate substances were added in a concentration of 1 mM to the assay, and the activities were determined after an incubation time of 5 min at 20° C. The absorption characteristics of diacetyl made it necessary to determine two blanks, one measured with replacement of enzyme solution, and the other measured by replacing substrate solution by buffer.

[2] = system: diacetyl reductase E2; assay: Substrate spectrum and KM determination, enzyme E2; type: biochemical, Lactobacillus kefir
Description: To determine KM, the activity of both Lactobacillus enzymes was measured as a function of the substrate concentration.
Various substrates were assayed with the most highly-purified preparations of the Lc. enzymes E1 and E2. The maximum conversion rate and KM were measured for each substrate by altering the concentration.

[3] = system: diacetyl reductase E1; assay: Substrate spectrum and KM determination, enzyme E1; type: biochemical, Lactobacillus kefir; design: Rel. Vmax E1: unit not given here
[4] = system: diacetyl reductase E1; assay: Stereospecificity by oxidation of D(-)- and L(+)-lactic acid, enzyme E1; type: biochemical, Lactobacillus kefir; settings: NAD+, potassium phosphate buffer pH 7.0
Description: (§1) But since the enzyme can also reduce pyruvate (as shown in Table 5), this provides a method of establishing the stereospecificity on the basis of the pair of substrates (+)- and (-)-lactate. In assay mixtures with D(-)- or L(+)-lactic acid and NAD^+ in potassium phosphate buffer (pH 7.0), the two enzymes E1 and E2 were able to convert D(-)-lactic acid very well, whereas […] was converted with 5% of this activity by E1 and with 4% of this activity by E2.

[5] = system: diacetyl reductase E2; assay: Stereospecificity by oxidation of D(-)- and L(+)-lactic acid, enzyme E2; type: biochemical, Lactobacillus kefir; settings: NAD+, potassium phosphate buffer pH 7.0
Description: as §1

[6] = system: diacetyl reductase; assay: Acetoin oxidation reaction with NAD as coenzyme; type: biochemical, Lactobacillus kefir; settings: pH and concentrations altered
[7] = Conversion of diacetyl by available lactate dehydrogenase; type: biochemical
Description: But it can be stated that, when available lactate dehydrogenase is used, diacetyl is not converted.

[8] = system: diacetyl reductase
Description: The enzyme was incubated with various concentrations of manganese chloride in an ice bath for 1 hour. The activity of each sample was then determined and, after 15 and 30 min, the activities were redetermined by renewed NADH addition.

[9] = 1 mM, incubation 5 min at 20° C.
[10] = most highly-purified E2, read-out: Km E2
[11] = most highly-purified E1, read-out: Km E1

O[C@H](CS)[C@H](O)CS [Dithiothreitol]
Residual activity of the Lc. enzyme [1, 9]: 106%

[Cl-].[Cl-].[Zn+2] [ZnCl2]
Residual activity of the Lc. enzyme [1, 9]: 85%

NC(=O)C1=CN([C@@H]2O[C@H](COP(=O)(O)OP(=O)(O)OC[C@H]3O[C@@H](n4cnc5c(N)ncnc54)[C@H](O)[C@@H]3O)[C@@H](O)[C@H]2O)C=CC1 [NADH, nicotinamide adenine dinucleotide, reduced]
Rel. Vmax E2 ([2]; most highly-purified E2): 100
Km [2, 10]: 0.036 mM
Rel. Vmax E1 ([3]; most highly-purified E1): 100
Km [3, 11]: 0.03 mM

O=C(O)CI [Iodoacetic acid]
Residual activity of the Lc. enzyme [1]: 102%

CCC(CC)(C(=O)O)C(=O)O [Diethylmalonic acid]
Residual activity of the Lc. enzyme [1, 9]: 100%

[Cl][Hg][Cl] [HgCl2]
Inhibition of the enzyme (in words) [1]: strong inhibition
Residual activity of the Lc. enzyme [1, 9]: 0%

O=C(O)c1cc[c]([Hg+])cc1.[OH-] [p-Hydroxymercuribenzoate]
Residual activity of the Lc. enzyme [1, 9]: 79%

C[C@H](O)C(=O)O [L(-)-lactic acid, L(+)-lactic acid]
Activity relative to that with D(-)-lactic acid, E1 [4]: 5%
Activity relative to that with D(-)-lactic acid, E2 [5]: 4%

CC(=O)CCC(C)=O [2,5-Hexanedione]
Rel. Vmax E1 ([3]; most highly-purified E1): 7
Km [3, 11]: 26 mM

C[C@@H](O)C(=O)O [D(-)-lactic acid]
Conversion of lactic acid by E1 (in words) [4]: very well
Conversion of lactic acid by E2 (in words) [5]: very well

O=C(O)CN(CCN(CC(=O)O)CC(=O)O)CC(=O)O [EDTA]
Residual activity of the Lc. enzyme [1]: 94%

[Ba+2].[Cl-].[Cl-] [BaCl2]
Residual activity of the Lc. enzyme [1, 9]: 102%

O=C(O)c1cc(SSc2ccc([N+](=O)[O-])c(C(=O)O)c2)ccc1[N+](=O)[O-] [2,2'-Dinitro-5,5'-dithiodibenzoic acid]
Inhibition of the enzyme (in words) [1]: strong inhibition
Residual activity of the Lc. enzyme [1, 9]: 0%

[Cl-].[Cl-].[Mg+2] [MgCl2]
Inhibition of the enzyme (in words) [1]: strong inhibition
Residual activity of the Lc. enzyme [1, 9]: 0%

Diacetylbenzene
Rel. Vmax E1 ([3]; most highly-purified E1): 1.3

CC(=O)C(C)O (single isomer, unassigned) [acetoin]
acetoin oxidation reaction (in words) [6]: never possible to measure

Triton X-100
Residual activity of the Lc. enzyme [1, 9]: 113%

O[C@H](CS)[C@@H](O)CS [1,4-Dithioerythritol]
Residual activity of the Lc. enzyme [1, 9]: 72%

NNc1ccccc1 [Phenylhydrazine]
Inhibition of the enzyme (in words) [1]: strong inhibition
Residual activity of the Lc. enzyme [1, 9]: 0%

[Cl-].[Cl-].[Co+2] [CoCl2]
Residual activity of the Lc. enzyme [1, 9]: 102%

[Cl][Fe][Cl] [FeCl2]
Inhibition of the enzyme (in words) [1]: strong inhibition
Residual activity of the Lc. enzyme [1, 9]: 0%

[Cl][Fe]([Cl])[Cl] [FeCl3]
Residual activity of the Lc. enzyme [1, 9]: 82%

CCN1C(=O)C=CC1=O [N-Ethylmaleimide]
Residual activity of the Lc. enzyme [1, 9]: 112%

O=S(=O)(F)Cc1ccccc1 [PMSF]
Inhibition of the enzyme (in words) [1]: less inhibition
Residual activity of the Lc. enzyme [1, 9]: 29% and 30%

CC(=O)C(C)=O [Diacetyl]
diacetyl concentration of substrate saturation, E2 [2]: above 1 M
Km ([2]; linear regression of Lineweaver-Burke plot, read-out: Km (E2)): 67 mM
Rel. Vmax E2 ([2]; most highly-purified E2): 100
Km [2, 10]: 67 mM
Km ([2]; pH 4.25, read-out: KM for the reduction of diacetyl (E2)): 67 mM
diacetyl concentration of substrate saturation, E1 [3]: above 1 M
Rel. Vmax E1 ([3]; most highly-purified E1): 100

N[C@@H](CCC(=O)N[C@@H](CS)C(=O)NCC(=O)O)C(=O)O [Gluthathione]
Residual activity of the Lc. enzyme [1, 9]: 103%

[Cl][Ni][Cl] [NiCl2]
Residual activity of the Lc. enzyme [1, 9]: 100%

CCOC(=O)C(C)=O [Ethyl pyruvate]
Rel. Vmax E2 ([2]; most highly-purified E2): 77
Km [2, 10]: 2.1 mM
Rel. Vmax E1 ([3]; most highly-purified E1): 109
Km [3, 11]: 2.4 mM

CC(=O)CC(C)=O [Acetylacetone, 2,4-pentanedione]
Km ([3]; enzyme not named in b63 (E1 in Table 5), read-out: Km for acetylacetone): 50 mM
Rel. Vmax E1 ([3]; most highly-purified E1): 8
Km [3, 11]: 50 mM

lactate dehydrogenase
conversion of diacetyl (in words) [7]: not converted

NC(=O)CI [Iodoacetamide]
Residual activity of the Lc. enzyme [1, 9]: 99%

[Ca+2].[Cl-].[Cl-] [CaCl2]
Residual activity of the Lc. enzyme [1, 9]: 96%

N[C@H]1CONC1=O [L-Cycloserine]
Residual activity of the Lc. enzyme [1, 9]: 100%

c1cnc2c(c1)ccc1cccnc12 [1,10-Phenanthroline]
Inhibition of the enzyme (in words) [1]: strong inhibition
Residual activity of the Lc. enzyme [1, 9]: 0%

c1ccc(-c2ccccn2)nc1 [2,2'-Bipyridyl]
Residual activity of the Lc. enzyme [1, 9]: 19%

[Cl][Mn][Cl] [MnCl2, manganese chloride]
rel. activity ([8]; 1 mM manganese, 15 min): 69%
rel. activity ([8]; 1 mM manganese, 30 min): 0.3%
rel. activity ([8]; 1 mM manganese, t = 0): 100%
rel. activity ([8]; 2 mM manganese, 15 min): 79%
rel. activity ([8]; 2 mM manganese, 30 min): 25%
rel. activity ([8]; 2 mM manganese, t = 0): 100%
Effect on enzyme stability (in words) ([8]; 5 mM): distinctly stabilizes the enzyme
rel. activity ([8]; 5 mM manganese, 15 min): 88%
rel. activity ([8]; 5 mM manganese, 30 min): 39%
rel. activity ([8]; 5 mM manganese, t = 0): 100%
rel. activity ([8]; 10 mM manganese, 15 min): 46%
rel. activity ([8]; 10 mM manganese, 30 min): 19%
rel. activity ([8]; 10 mM manganese, t = 0): 100%
Residual activity of the Lc. enzyme [1, 9]: 91%

[Cl][Cu][Cl] [CuCl2]
Inhibition of the enzyme (in words) [1]: strong inhibition
Residual activity of the Lc. enzyme [1, 9]: 0%
